The values that follow come from US20230167088A1, “1-PYRAZINYLPYRAZOLYL-3-OXYALKYL ACIDS AND THEIR DERIVATIVES, AND THEIR USE FOR CONTROL OF UNDESIRED PLANT GROWTH” (BAYER AKTIENGESELLSCHAFT, priority 2020, published 2023).

For assay [1], the system named is STEME. Put plainly: Herbicidal pre-emergence action 2b (doubly sown, 1280 g/ha). It is filed as in vivo, Stellaria media. The settings on record: doubly sown pots, dosage 1280 g/ha, visual scoring after about 3 weeks. Put shortly: (§1)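 Weed seeds sown in sandy loam, two species per pot, covered with soil; compounds as WP or EC applied to soil surface as aqueous suspension/emulsion with 0.5% additive at 600 L/ha water. Greenhouse growth; visual % activity vs untreated controls after about 3 weeks (100% = dead, 0% = like control).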

For assay [2], the system named is ECHCG. Description: Herbicidal post-emergence action 1b (twin sowing, 1280 g/ha). It is filed as in vivo, Echinochloa crus-galli. The settings on record: dosage 1280 g/ha, visual rating about 3 weeks after treatment. The method, then: (§2) [table] b) Seeds of mono- and dicotyledonous weed plants are placed in plastic pots in sandy loam soil (twin sowing with one species each of mono- or dicotyledonous weed plants per pot), covered with soil and cultivated in a greenhouse under controlled growth conditions. 2 to 3 weeks after sowing, the test plants are treated at the one-leaf stage. The compounds of the invention, formulated in the form of wettable powders (WP) or as emulsion concentrates (EC), are applied to the green parts of the plants as aqueous suspension or emulsion with addition of 0.5% additive at a water application rate equivalent to 600 litres per hectare. After the test plants have been kept in the greenhouse under optimum growth conditions for about 3 weeks, the activity of the preparations is rated visually in comparison to untreated controls. For example, 100% activity=the plants have died, 0% activity=like control plants. Tables A16 to A21 below show the effects of selected compounds of the general formula (I) according to Tables 1 and 2 on various harmful plants and at an application rate corresponding to 1280 g/ha, which were obtained by the experimental procedure mentioned above.

For assay [3], the system named is POAAN. Put plainly: Herbicidal pre-emergence action 2b (doubly sown, 1280 g/ha). It is filed as in vivo, Poa annua. The settings on record: doubly sown pots, dosage 1280 g/ha, visual scoring after about 3 weeks. The gist of the method: as §1
The subject of assay [4] is MATIN. Description: Herbicidal post-emergence action 1b (twin sowing, 1280 g/ha). The settings on record: dosage 1280 g/ha, visual rating about 3 weeks after treatment. It is filed as in vivo, Matricaria inodora. On the procedure: as §2
Assay [5] relates to ECHCG. Description: Herbicidal pre-emergence action 2b (doubly sown, 1280 g/ha). It is filed as in vivo, Echinochloa crus-galli. The settings on record: doubly sown pots, dosage 1280 g/ha, visual scoring after about 3 weeks. Put shortly: as §1
Assay [6] has as its system MATIN. The description is as above. It is filed as in vivo, Matricaria inodora. The settings on record: doubly sown pots, dosage 1280 g/ha, visual scoring after about 3 weeks. The gist of the method: as §1
Assay [7] relates to AMARE. The description is as above. It is filed as in vivo, Amaranthus retroflexus. The settings on record: doubly sown pots, dosage 1280 g/ha, visual scoring after about 3 weeks. The gist of the method:
as §1

Assay [8] relates to DIGSA. Description: Herbicidal post-emergence action 1b (twin sowing, 1280 g/ha). The settings on record: dosage 1280 g/ha, visual rating about 3 weeks after treatment. It is filed as in vivo, Digitaria sanguinalis. The method, then:
as §2

Assay [9] deals with DIGSA. Description: Herbicidal pre-emergence action 2b (doubly sown, 1280 g/ha). It is filed as in vivo, Digitaria sanguinalis. The settings on record: doubly sown pots, dosage 1280 g/ha, visual scoring after about 3 weeks. The source says:
[table] b) Seeds of mono- and dicotyledonous weed plants are placed in plastic pots in sandy loam soil (doubly sown with one species each of mono- or dicotyledonous weed plants per pot) and covered with soil. The compounds of the invention, formulated in the form of wettable powders (WP) or as emulsion concentrates (EC), are then applied onto the surface of the covering soil as aqueous suspension or emulsion with addition of 0.5% additive at a water application rate equivalent to 600 litres per hectare. After the treatment, the pots are placed in a greenhouse and kept under good growth conditions for the trial plants. After about 3 weeks, the effect of the preparations is scored visually in comparison with untreated controls as percentages. For example, 100% activity=the plants have died, 0% activity=like control plants. Tables B16 to B21 below show the effects of selected compounds of the general formula (I) according to Tables 1 and 2 on various harmful plants and at an application rate corresponding to 1280 g/ha, which were obtained by the experimental procedure mentioned above.

Assay [10] concerns POAAN. Description: Herbicidal post-emergence action 1b (twin sowing, 1280 g/ha). It is filed as in vivo, Poa annua. The settings on record: dosage 1280 g/ha, visual rating about 3 weeks after treatment. The gist of the method: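 Twin-sown mono- and dicot weeds in sandy loam were sprayed post-emergence at the one-leaf stage, 2–3 weeks after sowing, with WP or EC formulations in water plus 0.5% additive at 600 L/ha. After about 3 weeks in the greenhouse, activity was rated visually against untreated controls (0% = like control, 100% = plants dead).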

Take `COC(=O)COc1nn(-c2cnccn2)c(-c2ccnc(F)c2)c1Cl` [Example I-06]: in [1], the “Pre-emergence action at 1280 g/ha against STEME in %” value stood at 100%. Further, the “Post-emergence action at 1280 g/ha against ECHCG in %” value in [2] is reported as 100%. Also, the “Pre-emergence action at 1280 g/ha against POAAN in %” value in assay [3] amounted to 100%. In assay [4], the “Post-emergence action at 1280 g/ha against MATIN in %” value amounted to 90%. Also, the “Pre-emergence action at 1280 g/ha against ECHCG in %” value in [5] was 100%. In assay [6], the “Pre-emergence action at 1280 g/ha against MATIN in %” value is 90%. In addition, the “Pre-emergence action at 1280 g/ha against AMARE in %” value in assay [7] came out at 90%.

`COC(=O)[C@@H](C)Oc1nn(-c2cnccn2)c(-c2ccnc(F)c2)c1C#N` [Example I-35]: in assay [1], the “Pre-emergence action at 1280 g/ha against STEME in %” value amounted to 100%. The “Post-emergence action at 1280 g/ha against DIGSA in %” value in assay [8] came out at 90%. The “Pre-emergence action at 1280 g/ha against POAAN in %” value in [3] is recorded as 100%. Further, in assay [9], the “Pre-emergence action at 1280 g/ha against DIGSA in %” value turned out to be 90%. Further, the “Pre-emergence action at 1280 g/ha against AMARE in %” value in assay [7] was 90%. Moreover, the “Post-emergence action at 1280 g/ha against POAAN in %” value in assay [10] came to 100%.

Take `COC(=O)[C@H](C)Oc1nn(-c2cnccn2)c(-c2ccc(F)nc2)c1C#N` [Example I-26]: in assay [1], the “Pre-emergence action at 1280 g/ha against STEME in %” value is 100%. For the same compound, the “Post-emergence action at 1280 g/ha against ECHCG in %” value in assay [2] worked out at 100%. Further, the “Pre-emergence action at 1280 g/ha against POAAN in %” value in assay [3] is 100%. For the same compound, the “Post-emergence action at 1280 g/ha against MATIN in %” value in [4] was 100%. Also, the “Pre-emergence action at 1280 g/ha against ECHCG in %” value in assay [5] was 100%. The “Pre-emergence action at 1280 g/ha against DIGSA in %” value in assay [9] was found to be 100%. Besides, the “Pre-emergence action at 1280 g/ha against AMARE in %” value in assay [7] is recorded as 90%. For the same compound, the “Post-emergence action at 1280 g/ha against POAAN in %” value in [10] turned out to be 100%.
